Assay results reported in patent publication US20080009418A1, “Selective Inhibitors” (Alchemia LTD., priority 2004, published 2008).

Experiments:
Human δ-opioid (DOP) = biological target: T1, Human δ-opioid (DOP) (Homo sapiens, UniProt P41143); test: Radioligand binding, human δ-opioid (DOP) membranes, FlashPlate, [3H]-Bremazocine; details: compound at 10 μM; [3H]-Bremazocine
T1 construct: purchased Perkin Elmer Biosignal
Procedure, shortened: (§1)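 Cloned human receptor membranes were coated onto FlashPlate wells and incubated with radioligand and compound (added from a 0.5 mM DMSO daughter plate) for 1 hour at room temperature in the dark. Scintillation counting gave percent inhibition, with DMSO defining total and reference ligand defining non-specific binding.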

Human κ-Opioid (KOP) = biological target: T2, Human κ-Opioid (KOP) (Homo sapiens, UniProt P41145); test: Radioligand binding, human κ-opioid (KOP) membranes, filtration, [3H]-Diprenorphine; details: compound at 10 μM; [3H]-Diprenorphine
T2 construct: purchased Perkin Elmer Biosignal
Procedure, shortened: (§2)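 Membranes from cloned human receptors were incubated with compound and radioligand for 1 hour at room temperature. Bound ligand was collected on 0.3% PEI-soaked filters, washed with cold 50 mM Tris-HCl pH 7.4, and counted by scintillation. Percent inhibition was computed against DMSO totals and reference-ligand nonspecific wells.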

Human opioid (ORL1) = biological target: T3, Human opioid (ORL1) (Homo sapiens, UniProt P41146); test: Radioligand binding, human opioid ORL1 membranes, FlashPlate, [125I]-Nociceptin; details: compound at 10 μM; [125I]-Nociceptin
T3 construct: purchased Perkin Elmer Biosignal
Procedure, shortened: as §1

Human Melanocortin (MC4) = biological target: T4, Human Melanocortin (MC4) (Homo sapiens, UniProt P32245); test: Radioligand binding, human melanocortin MC4 membranes, FlashPlate, [125I]-NDP-αMSH; details: compound at 10 μM; [125I]-NDP-αMSH
T4 construct: purchased Perkin Elmer Biosignal
Procedure, shortened: as §1

[1] = biological target: T5, Human melanin-concentrating hormone (MCH1) (Homo sapiens, UniProt Q99705); test: Radioligand binding, human melanin-concentrating hormone MCH1 membranes, FlashPlate, [125I]-S36057; details: compound at 10 μM; [125I]-S36057
T5 construct: purchased Perkin Elmer Biosignal
Procedure, shortened: as §1

Human neurokinin (NK1) = biological target: T6, Human neurokinin (NK1) (Homo sapiens, UniProt P25103); test: Radioligand binding, human neurokinin NK1 membranes, filtration, [125I]-Substance P; details: compound at 10 μM; [125I]-Substance P
T6 construct: purchased Perkin Elmer Biosignal
Procedure, shortened: as §2

Human melanocortin (MC5) = biological target: T7, Human melanocortin (MC5) (Homo sapiens, UniProt P33032); test: Radioligand binding, human melanocortin MC5 membranes, FlashPlate, [125I]-NDP-αMSH; details: compound at 10 μM, [125I]-NDP-αMSH
T7 construct: purchased Perkin Elmer Biosignal
Procedure, shortened: as §1

Human μ-opioid (MOP) = biological target: T8, Human μ-opioid (MOP) (Homo sapiens, UniProt P35372); test: Radioligand binding, human μ-opioid (MOP) membranes, FlashPlate, [3H]-Naloxone; details: compound at 10 μM; [3H]-Naloxone
T8 construct: purchased Perkin Elmer Biosignal
Procedure, shortened: as §1

[2] = biological target: T9, Human neuropeptide Y (NPY-Y1) (Homo sapiens, UniProt P25929); test: Radioligand binding, human neuropeptide Y NPY-Y1 membranes, FlashPlate, [125I]-PYY; details: compound at 10 μM; [125I]-PYY
T9 construct: purchased Perkin Elmer Biosignal
T9 sequence (P25929 1-384): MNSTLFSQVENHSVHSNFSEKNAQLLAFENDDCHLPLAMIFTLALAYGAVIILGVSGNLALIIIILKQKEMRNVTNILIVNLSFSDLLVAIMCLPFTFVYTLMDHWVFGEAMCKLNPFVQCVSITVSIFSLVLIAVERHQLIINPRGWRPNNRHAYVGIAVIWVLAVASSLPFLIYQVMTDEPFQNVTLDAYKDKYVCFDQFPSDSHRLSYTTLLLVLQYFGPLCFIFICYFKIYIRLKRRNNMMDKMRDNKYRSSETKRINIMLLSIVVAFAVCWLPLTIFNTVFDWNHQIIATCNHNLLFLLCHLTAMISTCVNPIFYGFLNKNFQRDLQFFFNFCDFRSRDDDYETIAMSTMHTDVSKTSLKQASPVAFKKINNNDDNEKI
Procedure, shortened: as §1

Mouse urotensin (mUR2) = biological target: T10, Mouse urotensin (mUR2) (Mus musculus, UniProt Q8VIH9); test: Radioligand binding, mouse urotensin mUR2 membranes, FlashPlate, [125I]-Urotensin II; details: compound at 10 μM; [125I]-Urotensin II
T10 construct: purchased Perkin Elmer Biosignal
T10 sequence (Q8VIH9 1-385): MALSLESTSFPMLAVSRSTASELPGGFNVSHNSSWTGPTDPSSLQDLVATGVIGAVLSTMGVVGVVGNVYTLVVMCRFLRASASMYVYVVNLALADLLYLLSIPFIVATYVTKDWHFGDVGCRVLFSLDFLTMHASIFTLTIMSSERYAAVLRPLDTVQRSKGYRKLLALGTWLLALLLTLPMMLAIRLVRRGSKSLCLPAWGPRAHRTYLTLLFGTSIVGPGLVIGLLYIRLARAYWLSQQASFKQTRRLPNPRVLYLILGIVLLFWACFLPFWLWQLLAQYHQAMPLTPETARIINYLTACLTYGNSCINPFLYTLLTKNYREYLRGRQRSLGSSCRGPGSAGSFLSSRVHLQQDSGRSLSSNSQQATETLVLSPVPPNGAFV
Procedure, shortened: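 Cloned mouse urotensin (mUR2) receptor membranes from Perkin Elmer Biosignal were immobilized in FlashPlate microplates using a proprietary coating. Each well got 19.5 μl buffer, then 0.5 μl of DMSO, reference ligand, or compound. Adding 5 μl of [125I]-Urotensin II, diluted to 5× final concentration in binding buffer, started binding. Plates were sealed with TopSeal-A and incubated 1 hour at room temperature in the dark. Wells were counted for 30 seconds each on a TopCount after a 60-second delay, and percentage inhibition was calculated.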

Human Melanocortin (MC3) = biological target: T11, Human Melanocortin (MC3) (Homo sapiens, UniProt P41968); test: Radioligand binding, human melanocortin MC3 membranes, FlashPlate, [125I]-NDP-αMSH; details: compound at 10 μM; [125I]-NDP-αMSH
T11 construct: purchased Perkin Elmer Biosignal
Procedure, shortened: as §1

T1 sequence (P41143 whole entry): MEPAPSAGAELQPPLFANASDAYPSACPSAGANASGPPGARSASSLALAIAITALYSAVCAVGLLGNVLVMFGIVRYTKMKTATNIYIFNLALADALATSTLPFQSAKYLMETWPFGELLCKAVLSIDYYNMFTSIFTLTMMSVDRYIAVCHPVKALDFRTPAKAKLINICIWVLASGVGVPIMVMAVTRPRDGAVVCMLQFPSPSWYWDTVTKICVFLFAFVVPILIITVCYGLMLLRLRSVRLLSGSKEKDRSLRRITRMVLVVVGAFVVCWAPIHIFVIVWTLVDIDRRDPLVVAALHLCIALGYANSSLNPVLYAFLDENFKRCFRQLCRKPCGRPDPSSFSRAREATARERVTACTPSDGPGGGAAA
T8 sequence (P35372 whole entry): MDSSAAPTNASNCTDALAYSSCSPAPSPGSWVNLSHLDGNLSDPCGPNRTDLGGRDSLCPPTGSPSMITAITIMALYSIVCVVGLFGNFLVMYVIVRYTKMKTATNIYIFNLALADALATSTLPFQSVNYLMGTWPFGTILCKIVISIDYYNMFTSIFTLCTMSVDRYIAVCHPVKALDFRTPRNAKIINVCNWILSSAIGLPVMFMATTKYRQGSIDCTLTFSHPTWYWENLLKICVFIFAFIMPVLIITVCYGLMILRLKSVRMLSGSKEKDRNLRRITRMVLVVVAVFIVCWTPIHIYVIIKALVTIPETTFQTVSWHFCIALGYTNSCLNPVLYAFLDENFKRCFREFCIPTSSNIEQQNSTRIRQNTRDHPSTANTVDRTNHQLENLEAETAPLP
T6 sequence (P25103 whole entry): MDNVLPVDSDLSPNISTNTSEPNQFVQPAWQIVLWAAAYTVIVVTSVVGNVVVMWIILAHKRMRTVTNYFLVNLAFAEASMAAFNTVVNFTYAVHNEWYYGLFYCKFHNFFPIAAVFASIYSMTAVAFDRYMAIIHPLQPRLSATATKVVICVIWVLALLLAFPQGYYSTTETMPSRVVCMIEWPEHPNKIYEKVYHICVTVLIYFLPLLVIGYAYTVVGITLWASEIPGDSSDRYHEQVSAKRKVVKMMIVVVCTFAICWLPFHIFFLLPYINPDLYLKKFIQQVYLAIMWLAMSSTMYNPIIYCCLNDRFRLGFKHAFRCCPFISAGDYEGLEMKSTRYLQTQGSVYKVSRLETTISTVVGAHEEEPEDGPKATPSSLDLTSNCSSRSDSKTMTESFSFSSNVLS
T2 sequence (P41145 whole entry): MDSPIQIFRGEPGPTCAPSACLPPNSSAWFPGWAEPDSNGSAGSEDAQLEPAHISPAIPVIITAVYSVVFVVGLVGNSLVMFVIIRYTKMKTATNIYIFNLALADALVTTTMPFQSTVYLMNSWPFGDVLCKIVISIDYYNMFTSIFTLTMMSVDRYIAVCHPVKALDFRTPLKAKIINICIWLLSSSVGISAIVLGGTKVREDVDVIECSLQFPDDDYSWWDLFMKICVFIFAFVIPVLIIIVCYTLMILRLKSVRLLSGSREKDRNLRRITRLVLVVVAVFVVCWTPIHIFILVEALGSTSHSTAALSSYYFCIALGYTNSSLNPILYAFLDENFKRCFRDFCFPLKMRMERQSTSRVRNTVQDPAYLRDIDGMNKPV
T11 sequence (P41968 whole entry): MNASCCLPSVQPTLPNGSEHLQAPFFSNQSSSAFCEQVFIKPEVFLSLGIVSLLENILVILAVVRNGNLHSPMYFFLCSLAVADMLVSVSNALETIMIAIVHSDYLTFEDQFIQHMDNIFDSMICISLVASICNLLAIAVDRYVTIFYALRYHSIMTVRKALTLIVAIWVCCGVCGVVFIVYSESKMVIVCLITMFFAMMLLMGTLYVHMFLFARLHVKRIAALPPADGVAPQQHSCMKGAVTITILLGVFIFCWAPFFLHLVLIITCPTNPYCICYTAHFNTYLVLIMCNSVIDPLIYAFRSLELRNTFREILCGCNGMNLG
T4 sequence (P32245 whole entry): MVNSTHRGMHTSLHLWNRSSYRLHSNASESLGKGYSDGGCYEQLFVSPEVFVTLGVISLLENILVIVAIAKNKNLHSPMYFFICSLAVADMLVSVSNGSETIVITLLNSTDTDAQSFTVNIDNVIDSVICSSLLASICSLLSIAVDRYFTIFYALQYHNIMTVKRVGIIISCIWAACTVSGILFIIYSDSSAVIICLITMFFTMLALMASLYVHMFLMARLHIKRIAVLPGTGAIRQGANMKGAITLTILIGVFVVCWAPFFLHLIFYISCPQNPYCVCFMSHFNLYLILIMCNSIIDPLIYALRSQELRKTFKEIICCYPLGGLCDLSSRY
T5 sequence (Q99705 whole entry): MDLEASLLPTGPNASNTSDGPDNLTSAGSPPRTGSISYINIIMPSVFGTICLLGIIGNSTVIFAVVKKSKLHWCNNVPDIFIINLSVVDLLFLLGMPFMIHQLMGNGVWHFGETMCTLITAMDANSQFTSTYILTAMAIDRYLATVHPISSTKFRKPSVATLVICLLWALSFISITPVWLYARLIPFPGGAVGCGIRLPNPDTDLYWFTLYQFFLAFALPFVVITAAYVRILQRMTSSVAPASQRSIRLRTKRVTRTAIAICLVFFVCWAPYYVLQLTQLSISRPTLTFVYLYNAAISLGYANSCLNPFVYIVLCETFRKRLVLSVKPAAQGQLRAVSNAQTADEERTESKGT
T7 sequence (P33032 whole entry): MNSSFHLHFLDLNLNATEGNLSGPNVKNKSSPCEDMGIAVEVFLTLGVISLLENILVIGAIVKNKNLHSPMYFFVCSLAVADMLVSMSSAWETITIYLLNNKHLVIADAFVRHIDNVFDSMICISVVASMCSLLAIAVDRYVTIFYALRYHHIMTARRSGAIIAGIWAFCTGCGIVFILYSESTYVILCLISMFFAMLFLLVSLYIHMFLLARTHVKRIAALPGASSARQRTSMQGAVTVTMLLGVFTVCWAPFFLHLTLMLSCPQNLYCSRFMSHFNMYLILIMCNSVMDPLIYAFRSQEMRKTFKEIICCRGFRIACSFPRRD
T3 sequence (P41146 whole entry): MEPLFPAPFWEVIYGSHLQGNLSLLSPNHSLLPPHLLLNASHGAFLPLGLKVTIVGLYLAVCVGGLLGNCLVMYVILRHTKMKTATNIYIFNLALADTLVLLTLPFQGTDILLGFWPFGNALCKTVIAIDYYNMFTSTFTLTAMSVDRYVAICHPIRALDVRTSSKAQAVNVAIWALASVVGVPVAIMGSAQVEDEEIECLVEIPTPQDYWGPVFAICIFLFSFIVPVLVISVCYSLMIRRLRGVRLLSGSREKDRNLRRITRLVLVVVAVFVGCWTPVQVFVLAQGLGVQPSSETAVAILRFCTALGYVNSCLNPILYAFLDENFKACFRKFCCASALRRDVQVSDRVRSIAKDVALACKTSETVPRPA

Structure (SMILES)	A1: inhibition of radioligand binding, human δ-opioid (DOP) (Human δ-opioid (DOP))	A2: inhibition of radioligand binding, human κ-opioid (KOP) (Human κ-Opioid (KOP))	A10: inhibition of radioligand binding, human opioid (ORL1) (Human opioid (ORL1))	A4: inhibition of radioligand binding, human melanocortin (MC4) (Human Melanocortin (MC4))	A6: inhibition of radioligand binding, human melanin-concentrating hormone (MCH1) [1]	A8: inhibition of radioligand binding, human neurokinin (NK1) (Human neurokinin (NK1))	A5: inhibition of radioligand binding, human melanocortin (MC5) (Human melanocortin (MC5))	A7: inhibition of radioligand binding, human μ-opioid (MOP) (Human μ-opioid (MOP))	A9: inhibition of radioligand binding, human neuropeptide Y (NPY-Y1) [2]	A11: inhibition of radioligand binding, mouse urotensin (mUR2) (Mouse urotensin (mUR2))	A3: inhibition of radioligand binding, human melanocortin (MC3) (Human Melanocortin (MC3))	A5: inhibition of radioligand binding, human melanocortin (MC5) (Human melanocortin (MC5); 10 µM)
CSC1OC(COCc2ccccc2)C(O)C(OCc2cccc(N)c2)C1NC(=O)Cc1c[nH]c2ccccc12 (stereo not shown) [compound 322]	− (“−” indicates less than 50% inhibition at 10 μM)	− (“−” indicates less than 50% inhibition at 10 μM)	− (“−” indicates less than 50% inhibition at 10 μM)	− (“−” indicates less than 50% inhibition at 10 μM)	− (“−” indicates less than 50% inhibition at 10 μM)	+ (“+” indicates greater than 50% inhibition at 10 μM)	− (“−” indicates less than 50% inhibition at 10 μM)	− (“−” indicates less than 50% inhibition at 10 μM)	− (“−” indicates less than 50% inhibition at 10 μM)	− (“−” indicates less than 50% inhibition at 10 μM)	− (“−” indicates less than 50% inhibition at 10 μM)	–
CSC1OC(COCc2ccc(Cl)cc2)C(O)C(OCc2cccc(N)c2)C1NC(=O)c1c[nH]c2ccccc12 (stereo not shown) [compound 323]	− (“−” indicates less than 50% inhibition at 10 μM)	− (“−” indicates less than 50% inhibition at 10 μM)	− (“−” indicates less than 50% inhibition at 10 μM)	− (“−” indicates less than 50% inhibition at 10 μM)	− (“−” indicates less than 50% inhibition at 10 μM)	+ (“+” indicates greater than 50% inhibition at 10 μM)	− (“−” indicates less than 50% inhibition at 10 μM)	− (“−” indicates less than 50% inhibition at 10 μM)	− (“−” indicates less than 50% inhibition at 10 μM)	− (“−” indicates less than 50% inhibition at 10 μM)	− (“−” indicates less than 50% inhibition at 10 μM)	–
CSC1OC(COCc2ccccc2)C(O)C(OCc2cccc(N)c2)C1NC(=O)C=Cc1ccccc1 (stereo not shown) [compound 324]	− (“−” indicates less than 50% inhibition at 10 μM)	− (“−” indicates less than 50% inhibition at 10 μM)	− (“−” indicates less than 50% inhibition at 10 μM)	− (“−” indicates less than 50% inhibition at 10 μM)	− (“−” indicates less than 50% inhibition at 10 μM)	+ (“+” indicates greater than 50% inhibition at 10 μM)	− (“−” indicates less than 50% inhibition at 10 μM)	− (“−” indicates less than 50% inhibition at 10 μM)	− (“−” indicates less than 50% inhibition at 10 μM)	− (“−” indicates less than 50% inhibition at 10 μM)	− (“−” indicates less than 50% inhibition at 10 μM)	–
CSC1OC(COCc2cccc(N)c2)C(O)C(OCc2ccccc2)C1NC(=O)Cc1ccccc1 (stereo not shown) [compound 325]	− (“−” indicates less than 50% inhibition at 10 μM)	− (“−” indicates less than 50% inhibition at 10 μM)	− (“−” indicates less than 50% inhibition at 10 μM)	− (“−” indicates less than 50% inhibition at 10 μM)	− (“−” indicates less than 50% inhibition at 10 μM)	+ (“+” indicates greater than 50% inhibition at 10 μM)	–	− (“−” indicates less than 50% inhibition at 10 μM)	− (“−” indicates less than 50% inhibition at 10 μM)	− (“−” indicates less than 50% inhibition at 10 μM)	− (“−” indicates less than 50% inhibition at 10 μM)	+ (“+” indicates greater than 50% inhibition at 10 μM)
CSC1OC(COCc2cccc(N)c2)C(O)C(OCc2ccccc2)C1NC(=O)c1c[nH]c2ccccc12 (stereo not shown) [compound 326]	− (“−” indicates less than 50% inhibition at 10 μM)	− (“−” indicates less than 50% inhibition at 10 μM)	− (“−” indicates less than 50% inhibition at 10 μM)	− (“−” indicates less than 50% inhibition at 10 μM)	− (“−” indicates less than 50% inhibition at 10 μM)	+ (“+” indicates greater than 50% inhibition at 10 μM)	− (“−” indicates less than 50% inhibition at 10 μM)	− (“−” indicates less than 50% inhibition at 10 μM)	− (“−” indicates less than 50% inhibition at 10 μM)	− (“−” indicates less than 50% inhibition at 10 μM)	− (“−” indicates less than 50% inhibition at 10 μM)	–
